# Reference: paper PMC9865587, “Inhibitory Effects of 2-Aminoethoxydiphenyl Borate (2-APB) on Three KV1 Channel Currents” (Molecules, 2023)
# pIC50: −log10 of the molar value.
# Legend:
# Assay in all cases: cell-based
# [1] = biological target: T1, KV1.2 (Homo sapiens, UniProt P16389)
# T1 construct: gene KCNA2
# [2] = biological target: T2, KV1.4 (Homo sapiens, UniProt P22459, A553V); settings: CHO
# T2 construct: gene KCNA4
# [3] = biological target: T3, KV1.4 (Homo sapiens, UniProt P22459, T551A); settings: CHO
# T3 construct: gene KCNA4
# [4] = biological target: T4, KV1.4 (Homo sapiens, UniProt P22459, V558A); settings: CHO
# T4 construct: gene KCNA4
# [5] = biological target: T5, KV1.4 (Homo sapiens, UniProt P22459)
# T5 construct: gene KCNA4
# [6] = biological target: T6, KV1.4 (Homo sapiens, UniProt P22459, L554A); settings: CHO
# T6 construct: gene KCNA4
# [7] = biological target: T7, KV1.4 (Homo sapiens, UniProt P22459, V556A); settings: CHO
# T7 construct: gene KCNA4
# [8] = biological target: T8, KV1.3 (Homo sapiens, UniProt P22001)
# T8 construct: gene KCNA3
# [9] = biological target: T9, KV1.4 (Homo sapiens, UniProt P22459, V549A); settings: CHO
# T9 construct: gene KCNA4
# [10] = biological target: T10, KV1.4 (Homo sapiens, UniProt P22459, N-TERMINALTRUNCATION(1–61DELETED))
# T10 construct: gene KCNA4
# T10 sequence (P22459 62-653, stated change not applied): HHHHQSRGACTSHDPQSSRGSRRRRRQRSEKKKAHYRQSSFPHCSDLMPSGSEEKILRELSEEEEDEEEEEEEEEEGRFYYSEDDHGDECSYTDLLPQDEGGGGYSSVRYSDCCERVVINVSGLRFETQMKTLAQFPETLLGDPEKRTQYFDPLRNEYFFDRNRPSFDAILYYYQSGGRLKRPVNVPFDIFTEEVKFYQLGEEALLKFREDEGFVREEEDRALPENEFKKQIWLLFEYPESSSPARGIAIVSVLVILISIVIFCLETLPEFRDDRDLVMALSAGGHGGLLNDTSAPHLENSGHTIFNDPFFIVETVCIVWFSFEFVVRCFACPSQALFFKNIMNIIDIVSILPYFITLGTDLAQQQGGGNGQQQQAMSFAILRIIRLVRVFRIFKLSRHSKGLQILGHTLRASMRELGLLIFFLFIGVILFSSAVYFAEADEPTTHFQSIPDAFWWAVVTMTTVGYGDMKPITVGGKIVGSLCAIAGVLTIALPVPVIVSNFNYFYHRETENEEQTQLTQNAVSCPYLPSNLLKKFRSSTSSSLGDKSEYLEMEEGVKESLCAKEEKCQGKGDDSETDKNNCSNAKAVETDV
# T8 sequence (P22001 whole entry): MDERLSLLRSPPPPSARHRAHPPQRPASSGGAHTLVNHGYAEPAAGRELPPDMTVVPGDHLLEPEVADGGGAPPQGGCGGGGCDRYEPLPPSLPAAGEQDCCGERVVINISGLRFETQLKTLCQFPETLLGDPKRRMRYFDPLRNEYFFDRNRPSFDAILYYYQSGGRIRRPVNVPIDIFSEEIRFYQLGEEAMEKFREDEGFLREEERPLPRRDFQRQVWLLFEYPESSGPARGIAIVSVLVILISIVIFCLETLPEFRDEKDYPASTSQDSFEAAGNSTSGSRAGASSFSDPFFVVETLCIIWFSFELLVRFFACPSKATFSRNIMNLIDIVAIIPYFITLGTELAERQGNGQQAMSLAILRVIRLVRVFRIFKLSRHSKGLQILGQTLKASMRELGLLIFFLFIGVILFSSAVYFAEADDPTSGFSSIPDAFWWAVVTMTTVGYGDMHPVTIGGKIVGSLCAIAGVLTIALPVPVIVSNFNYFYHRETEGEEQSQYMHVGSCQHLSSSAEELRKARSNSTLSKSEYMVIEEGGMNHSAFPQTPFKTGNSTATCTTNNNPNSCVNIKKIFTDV
# T4 sequence (P22459 whole entry V558A): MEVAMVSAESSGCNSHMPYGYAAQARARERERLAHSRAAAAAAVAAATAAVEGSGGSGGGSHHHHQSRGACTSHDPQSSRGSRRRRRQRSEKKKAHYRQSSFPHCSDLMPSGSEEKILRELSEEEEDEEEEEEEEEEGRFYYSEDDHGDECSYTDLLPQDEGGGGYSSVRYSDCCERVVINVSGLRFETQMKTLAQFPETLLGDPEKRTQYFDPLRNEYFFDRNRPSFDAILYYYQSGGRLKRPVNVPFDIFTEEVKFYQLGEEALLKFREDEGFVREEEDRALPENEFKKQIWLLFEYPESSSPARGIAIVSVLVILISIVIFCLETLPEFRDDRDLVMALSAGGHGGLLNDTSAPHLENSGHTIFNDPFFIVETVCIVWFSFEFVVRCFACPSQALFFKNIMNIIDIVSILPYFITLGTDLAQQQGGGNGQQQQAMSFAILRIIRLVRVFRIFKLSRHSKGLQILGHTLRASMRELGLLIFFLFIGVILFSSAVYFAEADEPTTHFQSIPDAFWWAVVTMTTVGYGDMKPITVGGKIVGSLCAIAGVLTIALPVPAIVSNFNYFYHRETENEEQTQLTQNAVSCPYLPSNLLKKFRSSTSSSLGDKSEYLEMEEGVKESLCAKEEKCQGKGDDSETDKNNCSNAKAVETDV
# T6 sequence (P22459 whole entry L554A): as the sequence (P22459 whole entry V558A) above, with L554A, A558V counted along it
# T7 sequence (P22459 whole entry V556A): as the sequence (P22459 whole entry V558A) above, with V556A, A558V counted along it
# T1 sequence (P16389 whole entry): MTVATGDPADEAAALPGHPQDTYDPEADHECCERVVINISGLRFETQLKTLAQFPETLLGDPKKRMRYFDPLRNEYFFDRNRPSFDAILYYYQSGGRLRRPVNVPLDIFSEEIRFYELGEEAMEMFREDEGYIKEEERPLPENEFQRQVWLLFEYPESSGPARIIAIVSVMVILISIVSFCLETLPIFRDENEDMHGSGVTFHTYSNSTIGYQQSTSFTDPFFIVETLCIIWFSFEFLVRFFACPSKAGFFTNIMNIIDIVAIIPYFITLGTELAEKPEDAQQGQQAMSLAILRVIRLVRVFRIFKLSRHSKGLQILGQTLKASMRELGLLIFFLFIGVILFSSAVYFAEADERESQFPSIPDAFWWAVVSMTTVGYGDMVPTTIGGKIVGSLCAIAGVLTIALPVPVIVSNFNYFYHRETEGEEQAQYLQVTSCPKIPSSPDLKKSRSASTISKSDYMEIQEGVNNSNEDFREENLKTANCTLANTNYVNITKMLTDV
# T3 sequence (P22459 whole entry T551A): as the sequence (P22459 whole entry V558A) above, with T551A, A558V counted along it
# T9 sequence (P22459 whole entry V549A): as the sequence (P22459 whole entry V558A) above, with V549A, A558V counted along it
# T5 sequence (P22459 whole entry): as the sequence (P22459 whole entry V558A) above, with A558V counted along it
# T2 sequence (P22459 whole entry A553V): as the sequence (P22459 whole entry V558A) above, with A553V, A558V counted along it
structure (smiles),measurement,setting,value
NCCOB(c1ccccc1)c1ccccc1 [2-APB],pIC50,[1],3.51
same,inhibition at 100 µM,[2],18.4%
same,inhibition at 100 µM,[3],37.8%
same,inhibition at 100 µM,[4],57.3%
same,pIC50,[5],4.17
same,inhibition at 100 µM,[6],32.9%
same,inhibition at 100 µM,[7],60.8%
same,pIC50,[8],3.34
same,inhibition at 100 µM,[9],44.1%
same,pIC50,[10],3.51
